Like-named read-outs stand apart in the source and are kept apart here.
What was measured:
Conditions in all cases: human, 2880 min
[1] = system: CYP1A2
Protocol: (§1) Cryopreserved human hepatocytes (XenoTeek) were rapidly thawed at 37°C, and viable cells were obtained using Hepatocytes Isolation Kit (Nosan Corporation). After cells prepared were diluted with ice cold William's Medium E (10% FBS, +PSG) to give a concentration of 5 x 10^5 viable cells/mL, the cells were seeded onto a 48-well collagen-coated plate (BD Biosciences) at a concentration of 1 x 10^5 cells/cm^2 and cultured at 37°C in 5% CO2 for 24 hours. Then, the medium was replaced with Hepato-STIM (registered trade mark: BD Biosciences) (+EGF, PSG, -FBS), and the cells were further cultured at 37°C in 5% CO2 for 24 hours. […] The culture medium containing test compound, β-NF or Rif was replaced every 24 hours. Test compound, β-NF and Rif were each dissolved in dimethyl sulfoxide (DMSO: Wako Pure Chemical Industries, Ltd.), and culture medium containing test compound (final concentrations; 1, 3 and 10µM), β-NF (final concentration; 10µM) or Rif (final concentration; 10µM) was prepared by adding them to Hepato-STIM(+EGF, PSG, -FBS), respectively. […] The levels of mRNA for CYP1A1 and GAPDH were quantified using SYBR Green PCR Core Reagents Kit (Applied Biosystems), and those for CYP1A2 and that of CYP3A4 were measured using Taqman PCR Core Reagents Kit (Applied Biosystems) and ABI Prism 7900 Sequence Detection System (Applied Biosystems).
(§2) The ability of a test compound to induce CYP1A1 was calculated as follows: Ability of a test compound to induce CYP1A1 (%) = {[(amount of mRNA of CYP1A1 in test compound treated cells)/(amount of mRNA of GAPDH in test compound treated cells)]/[(amount of mRNA of CYP1A1 in control cells)/(amount of mRNA of GAPDH in control cells)] - 1}/{[(amount of mRNA of CYP1A1 in positive control treated cells)/(amount of mRNA of GAPDH in positive control treated cells)]/[(amount of mRNA of CYP1A1 in control cells)/(amount of mRNA of GAPDH in control cells)] -1} x 100 The ability to induce CYP1A2 or CYP3A4 was calculated in the same manner described above.

[2] = system: CYP1A1
Protocol: Cryopreserved human hepatocytes (XenoTeek) were rapidly thawed at 37°C, and viable cells were obtained using Hepatocytes Isolation Kit (Nosan Corporation). […] Then, the medium was replaced with Hepato-STIM (registered trade mark: BD Biosciences) (+EGF, PSG, -FBS), and the cells were further cultured at 37°C in 5% CO2 for 24 hours. […] The culture medium containing test compound, β-NF or Rif was replaced every 24 hours. […] The levels of mRNA for CYP1A1 and GAPDH were quantified using SYBR Green PCR Core Reagents Kit (Applied Biosystems), and those for CYP1A2 and that of CYP3A4 were measured using Taqman PCR Core Reagents Kit (Applied Biosystems) and ABI Prism 7900 Sequence Detection System (Applied Biosystems).

[3] = system: CYP3A4
Protocol: as §1, §2

SMILES	Induction Ability compared to positive control (%) CYP1A2 ([1]; 1 uM) [%]	Induction Ability compared to positive control (%) CYP1A2 ([1]; 3 uM) [%]	Induction Ability compared to positive control (%) CYP1A2 ([1]; 10 uM) [%]	Induction Ability compared to positive control (%) CYP1A1 ([2]; 1 uM) [%]	Induction Ability compared to positive control (%) CYP1A1 ([2]; 3 uM) [%]	Induction Ability compared to positive control (%) CYP1A1 ([2]; 10 uM) [%]	Induction Ability compared to positive control (%) CYP3A4 ([3]; 1 uM) [%]	Induction Ability compared to positive control (%) CYP3A4 ([3]; 3 uM) [%]	Induction Ability compared to positive control (%) CYP3A4 ([3]; 10 uM) [%]
CNc1nc(-c2cccc(NC(=O)c3ccc(C(=O)OC)cc3)c2)c2cc(OC)c(OC)cc2n1 [Example 1, methyl N-[3-(6,7-dimethoxy-2-methylaminoquinazolin-4-yl)phenyl]terephthalamic acid]	-0.1	-0.7	2.5	0.1	0.6	4.6	-2.4	-3.4	-4.0
O=c1cc(-c2ccccc2)oc2ccc3ccccc3c12 [β-naphthoflavone, reference compound]						100.0			

Reference: patent EP2123641A1, “CRYSTAL, AMORPHOUS FORM AND SALT OF METHYL N-Ý3-(6,7-DIMETHOXY- 2-METHYLAMINOQUINAZOLIN-4-YL)PHENYL¨[…] ACID” (priority 2007, dated 2008)
